Data reported in ChEMBL document CHEMBL1151518, “Synthesis, evaluation and Tc-99m complexation of a hydrazinonicotinyl conjugate of a GP IIb/IIIa antagonist cyclic peptide for the detection of deep vein thrombosis” (Bioorg Med Chem Lett, 1997).

Molecular target: Integrin alpha-IIb/beta-3 (Canis lupus familiaris)
Assay: Inhibition of 125I-fibrinogen binding to alpha IIb beta-3 integrin as inhibition of activated platelets

Row | SMILES | IC50 [nM]
1 | CC(C)[C@H]1NC(=O)c2cc(cc(NC(=O)CCCCCNC(=O)c3ccc(CN(CCSC(c4ccccc4)(c4ccccc4)c4ccccc4)CC(=O)NCCSC(c4ccccc4)(c4ccccc4)c4ccccc4)cc3)c2)CNC(=O)[C@H](CC(=O)O)NC(=O)CNC(=O)[C@H](CCCN=C(N)N)N(C)C1=O | > 1000
2 | CC(C)[C@H]1NC(=O)c2cc(cc(NC(=O)CCCCCNC(=O)c3ccc(NNC(=O)OC(C)(C)C)nc3)c2)CNC(=O)[C@H](CC(=O)O)NC(=O)CNC(=O)[C@H](CCCN=C(N)N)N(C)C1=O | 9
3 | CC(C)[C@H]1NC(=O)c2cc(cc(NC(=O)CCCCCNC(=O)c3ccc(NN)nc3)c2)CNC(=O)[C@H](CC(=O)O)NC(=O)CNC(=O)[C@H](CCCN=C(N)N)N(C)C1=O | 8
4 | CCOC(C)SCC(=O)NCC(CCC(=O)NCCCCCC(=O)Nc1cc2cc(c1)C(=O)N[C@H](C(C)C)C(=O)N(C)[C@@H](CCCN=C(N)N)C(=O)NCC(=O)N[C@@H](CC(=O)O)C(=O)NC2)NC(=O)CSC(C)OCC (stereo partly drawn) | 13
5 | CCOC(C)SCC(=O)NCC(CCC(=O)NCCCC[C@H]1NC(=O)c2cccc(c2)CNC(=O)[C@H](CC(=O)O)NC(=O)CNC(=O)[C@H](CCCN=C(N)N)N(C)C1=O)NC(=O)CSC(C)OCC (stereo partly drawn) | 11

Second part, the compound after the results:

Row | IC50 [nM] | SMILES
6 | 16 | CN1C(=O)[C@@H](CCCCNC(=O)c2ccc(NNC(=O)OC(C)(C)C)nc2)NC(=O)c2cccc(c2)CNC(=O)[C@H](CC(=O)O)NC(=O)CNC(=O)[C@@H]1CCCN=C(N)N
7 | 5 | CC(C)[C@H]1NC(=O)c2cc(cc(NC(=O)CCCCCN)c2)CNC(=O)[C@H](CC(=O)O)NC(=O)CNC(=O)[C@H](CCCN=C(N)N)N(C)C1=O
8 | 6 | CC(C)[C@H]1NC(=O)c2cccc(c2)CNC(=O)[C@H](CC(=O)O)NC(=O)CNC(=O)[C@H](CCCN=C(N)N)N(C)C1=O
